Calls of active or inactive are those of the source. No cut-off for these calls is given here.
Tests used:
Acetylcholinesterase [1] = target: T1, Acetylcholinesterase (Electrophorus electricus, UniProt O42275)
Description: (§1) Inhibition of electric eel AChE by Ellman's method

Cholinesterase [2] = target: T2, Cholinesterase (Equus caballus, UniProt P81908)
Description: (§2) Inhibition of horse serum BChE by Ellman's method

[3] = target: Cholinesterase (Equus caballus) (UniProt P81908); test: Inhibition of horse serum BChE at 100 uM by Ellman's method
Acetylcholinesterase [4] = target: T1, Acetylcholinesterase; remark: listed apart in the source
Description: as §1

Cholinesterase [5] = target: T2, Cholinesterase; remark: listed apart in the source
Description: as §2

[6] = target: Cholinesterase (Equus caballus) (UniProt P81908); test: Mixed type inhibition of horse serum BChE by Ellman's method
[7] = target: Acetylcholinesterase (Electrophorus electricus) (UniProt O42275); test: Mixed type inhibition of electric eel AChE by Ellman's method
Sequence of Acetylcholinesterase (Electrophorus electricus) (O42275 24-633 limits assumed): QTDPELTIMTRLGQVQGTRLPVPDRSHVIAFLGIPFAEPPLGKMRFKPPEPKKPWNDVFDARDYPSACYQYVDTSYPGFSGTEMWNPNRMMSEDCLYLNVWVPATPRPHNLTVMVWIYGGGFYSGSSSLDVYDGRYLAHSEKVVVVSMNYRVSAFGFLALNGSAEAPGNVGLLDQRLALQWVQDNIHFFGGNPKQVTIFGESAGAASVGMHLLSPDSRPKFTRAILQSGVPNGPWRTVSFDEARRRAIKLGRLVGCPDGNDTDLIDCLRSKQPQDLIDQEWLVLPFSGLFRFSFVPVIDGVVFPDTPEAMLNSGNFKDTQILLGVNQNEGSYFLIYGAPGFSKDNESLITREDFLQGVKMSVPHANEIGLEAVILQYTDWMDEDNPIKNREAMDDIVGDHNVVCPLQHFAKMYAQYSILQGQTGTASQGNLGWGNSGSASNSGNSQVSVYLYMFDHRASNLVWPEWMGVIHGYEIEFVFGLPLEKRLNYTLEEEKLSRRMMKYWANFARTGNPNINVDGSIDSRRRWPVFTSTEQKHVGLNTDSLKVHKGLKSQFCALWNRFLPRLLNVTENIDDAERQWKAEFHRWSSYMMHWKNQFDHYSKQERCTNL

[8] = target: Cholinesterase (Equus caballus) (UniProt P81908); test: Inhibition of horse serum BChE at 40 uM by Ellman's method
[9] = target: Cholinesterase (Equus caballus) (UniProt P81908); test: Inhibition of horse serum BChE at 15 uM by Ellman's method
[10] = target: Acetylcholinesterase (Electrophorus electricus) (UniProt O42275); test: Inhibition of electric eel AChE at 100 uM by Ellman's method
Cholinesterase [11] = target: T2, Cholinesterase; test: Inhibition of horse serum BChE by Lineweaver-Burke plot
[12] = target: Cholinesterase (Equus caballus) (UniProt P81908); test: Inhibition of horse serum BChE at 70 uM by Ellman's method
[13] = target: Cholinesterase (Equus caballus) (UniProt P81908); test: Inhibition of horse serum BChE at 30 uM by Ellman's method

T2 sequence (P81908 whole entry): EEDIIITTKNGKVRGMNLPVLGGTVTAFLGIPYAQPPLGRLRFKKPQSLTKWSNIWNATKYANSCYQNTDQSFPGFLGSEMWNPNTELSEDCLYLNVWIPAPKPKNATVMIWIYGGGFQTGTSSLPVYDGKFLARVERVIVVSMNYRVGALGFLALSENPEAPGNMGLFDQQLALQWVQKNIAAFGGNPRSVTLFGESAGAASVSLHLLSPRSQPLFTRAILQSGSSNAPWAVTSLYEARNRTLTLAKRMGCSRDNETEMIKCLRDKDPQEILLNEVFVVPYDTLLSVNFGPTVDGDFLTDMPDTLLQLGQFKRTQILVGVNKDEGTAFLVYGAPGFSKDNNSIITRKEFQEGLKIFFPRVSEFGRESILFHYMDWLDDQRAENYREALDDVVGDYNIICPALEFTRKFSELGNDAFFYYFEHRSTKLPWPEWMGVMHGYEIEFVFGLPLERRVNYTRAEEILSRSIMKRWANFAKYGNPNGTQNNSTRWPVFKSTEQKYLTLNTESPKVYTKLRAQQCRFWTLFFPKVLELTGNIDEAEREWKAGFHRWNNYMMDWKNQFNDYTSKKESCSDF
Sequence of Cholinesterase (Equus caballus) (P81908 whole entry): as above
T1 sequence (O42275 whole entry): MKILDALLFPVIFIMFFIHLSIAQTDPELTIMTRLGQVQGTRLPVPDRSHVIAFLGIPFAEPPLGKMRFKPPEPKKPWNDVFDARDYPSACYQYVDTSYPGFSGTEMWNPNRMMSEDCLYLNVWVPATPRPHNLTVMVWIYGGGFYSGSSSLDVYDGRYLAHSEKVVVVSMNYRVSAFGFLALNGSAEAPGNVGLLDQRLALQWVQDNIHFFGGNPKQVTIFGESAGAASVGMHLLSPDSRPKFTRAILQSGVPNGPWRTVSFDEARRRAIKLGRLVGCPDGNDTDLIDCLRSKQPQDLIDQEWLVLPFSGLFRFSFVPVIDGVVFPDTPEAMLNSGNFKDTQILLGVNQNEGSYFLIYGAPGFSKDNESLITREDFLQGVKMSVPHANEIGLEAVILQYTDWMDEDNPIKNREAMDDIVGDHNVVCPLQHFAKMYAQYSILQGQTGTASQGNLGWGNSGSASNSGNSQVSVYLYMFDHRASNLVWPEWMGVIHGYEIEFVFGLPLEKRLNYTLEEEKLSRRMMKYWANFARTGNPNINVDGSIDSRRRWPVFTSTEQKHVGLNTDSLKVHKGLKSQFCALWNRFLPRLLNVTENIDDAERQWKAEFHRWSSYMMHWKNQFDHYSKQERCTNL

Row | SMILES | IC50 (Acetylcholinesterase [1]) | IC50 (Cholinesterase [2]) | IC50 (Acetylcholinesterase [4]) [µM] | IC50 (Cholinesterase [5]) [µM] | other results
1 | CC(C)c1ccc(C(=O)CC(NCCCCCCCCNC(CC(=O)c2ccc(C(C)C)cc2C(C)C)C(=O)Nc2ccccc2)C(=O)Nc2ccccc2)c(C(C)C)c1 (mixture of isomers) | ND(Insoluble) | ND(Insoluble) | – | – | –
2 | O=C(CC(NCCCCCCCCNC(CC(=O)c1ccc(Cl)cc1)C(=O)Nc1ccccc1)C(=O)Nc1ccccc1)c1ccc(Cl)cc1 (mixture of isomers) | ND(Insoluble) | ND(Insoluble) | – | – | –
3 | COc1ccc(C(=O)CC(NCCCCCCCCNC(CC(=O)c2ccc(OC)cc2)C(=O)Nc2ccccc2)C(=O)Nc2ccccc2)cc1 (mixture of isomers) | ND(Insoluble) | ND(Insoluble) | – | – | –
4 | Cc1ccc(C)c(C(=O)CC(NCCCCCCCCNC(CC(=O)c2cc(C)ccc2C)C(=O)Nc2ccccc2)C(=O)Nc2ccccc2)c1 (mixture of isomers) | ND(Insoluble) | ND(Insoluble) | – | – | –
5 | CC(C)c1ccc(C(=O)CC(NCCCCCCCCNC(CC(=O)c2ccc(C(C)C)cc2)C(=O)Nc2ccccc2)C(=O)Nc2ccccc2)cc1 (mixture of isomers) | ND(Insoluble) | ND(Insoluble) | – | – | –
6 | O=C(CC(NCCCCCCCCNC(CC(=O)c1ccc2c(c1)CCCC2)C(=O)Nc1ccccc1)C(=O)Nc1ccccc1)c1ccc2c(c1)CCCC2 (mixture of isomers) | ND(Insoluble) | ND(Insoluble) | – | – | –
7 | O=C(CC(C(=O)Nc1ccccc1)N1CCOCC1)c1ccccc1 (racemic) | – | – | > 100 | – | inhibition [3]: 21.6%
8 | Cc1ccc(C)c(C(=O)CC(C(=O)Nc2ccccc2)N2CCCCC2)c1 (racemic) | – | – | > 10 | 17.2 | –
9 | COc1ccc(C(=O)CC(C(=O)Nc2ccccc2)n2ccnc2)cc1 (racemic) | – | – | 7.85 | 30.4 | –
10 | CC(C)c1ccc(C(=O)CC(C(=O)Nc2ccccc2)n2ccnc2)c(C(C)C)c1 (racemic) | – | – | – | > 20 | inhibition [6]: Active; inhibition [7]: Active
11 | O=C(CC(C(=O)Nc1ccccc1)n1ccnc1)c1ccc2c(c1)CCCC2 (racemic) | – | – | – | – | inhibition [8]: 17%
12 | O=C(CC(C(=O)Nc1ccccc1)N1CCCCC1)c1ccc(Cl)cc1 (racemic) | ND(Insoluble) | ND(Insoluble) | – | – | –
13 | CC(C)c1ccc(C(=O)CC(C(=O)Nc2ccccc2)N2CCCCC2)cc1 (racemic) | – | – | – | 7.06 | –
14 | O=C(CC(C(=O)Nc1ccccc1)N1CCCCC1)c1ccc2c(c1)CCCC2 (racemic) | – | – | – | – | inhibition [9]: 21.5%
15 | Cc1ccc(C)c(C(=O)CC(C(=O)Nc2ccccc2)N2CCOCC2)c1 (racemic) | – | – | > 100 | 34.1 | –
16 | O=C(CC(C(=O)Nc1ccccc1)N1CCOCC1)c1ccc(Cl)cc1 (racemic) | ND(Insoluble) | ND(Insoluble) | – | – | –
17 | COc1ccc(C(=O)CC(C(=O)Nc2ccccc2)N2CCOCC2)cc1 (racemic) | – | – | – | > 100 | inhibition [10]: 38.7%
18 | CC(C)c1ccc(C(=O)CC(C(=O)Nc2ccccc2)N2CCOCC2)cc1 (racemic) | – | – | > 100 | – | inhibition [8]: 27.2%
19 | CC(C)c1ccc(C(=O)CC(C(=O)Nc2ccccc2)N2CCOCC2)c(C(C)C)c1 (racemic) | – | – | – | 2.48 | Ki (Cholinesterase [11]): 3.18 µM; inhibition [6]: Active; inhibition [7]: Active
20 | Cc1ccc(C)c(C(=O)CC(C(=O)Nc2ccccc2)n2ccnc2)c1 (racemic) | – | – | 27.9 | – | inhibition [12]: 42%
21 | CC(C)c1ccc(C(=O)CC(C(=O)Nc2ccccc2)N2CCCCC2)c(C(C)C)c1 (racemic) | – | – | – | – | inhibition [9]: 39.9%
22 | O=C(CC(C(=O)Nc1ccccc1)N1CCOCC1)c1ccc2c(c1)CCCC2 (racemic) | – | – | > 30 | – | inhibition [8]: 13%
23 | CC(C)c1ccc(C(=O)CC(C(=O)Nc2ccccc2)n2ccnc2)cc1 (racemic) | – | – | – | – | inhibition [13]: 10%
24 | COc1ccc(C(=O)CC(C(=O)Nc2ccccc2)N2CCCCC2)cc1 (racemic) | – | – | > 10 | > 40 | –
25 | O=C(CC(C(=O)Nc1ccccc1)N1CCCCC1)c1ccccc1 (racemic) | – | – | > 100 | – | inhibition [3]: 34.8%
26 | O=C(CC(C(=O)Nc1ccccc1)n1ccnc1)c1ccc(Cl)cc1 (racemic) | ND(Insoluble) | ND(Insoluble) | – | – | –

— ChEMBL document CHEMBL1156836, “4-Aryl-4-oxo-N-phenyl-2-aminylbutyramides as acetyl- and butyrylcholinesterase inhibitors. Preparation, anticholinesterase activity, docking study, and 3D structure-activity relationship based on molecular interaction fields” (Bioorg Med Chem, 2010)
